Data: patent publication EP0172632B1, “Benzopyrano[4,3,2-cd]indazole compounds, processes for their production and pharmaceutical compositions comprising the compounds” (WARNER-LAMBERT COMPANY, priority 1984, dated 1986)
≈ marks a conversion by molar mass, not a printed value. Structures can show the parent of a compound that is named as a salt. Where two headings read alike, the source gives them in different places.

What was measured:
[1] = system: L1210 cells; assay: L1210 in vitro cell growth inhibition; assay type: cell-based; details: Mus musculus, 72 h; L1210 murine leukemia cells, three days incubation, 50% inhibition of growth; read-out: L1210 in vitro ID50
Method: Another test protocol uses L1210 cells, a murine leukemia cell line, grown in RPMI 1640 supplemented with 5% fetal bovine serum and gentamicin ([…]). Drug dilutions are prepared in the appropriate solvent and 20 µl of each dilution are added to 24-well Linbro tissue culture plates, followed by the addition of 2.0 ml of cell suspension containing 3 x 10^4 cells per ml. Solvent and medium controls are included in each test. After incubation at 37°C for three days in 5% CO2, the contents of each well are removed and the cells counted in a ZBI Counter counter. Percent growth are calculated relative to the controls and the levels of drug activity are expressed as ID50 in moles per liter.

[2] = system: Streptococcus pneumoniae; assay: in vitro antibacterial (ABMF) microdilution susceptibility test; assay type: cell-based; details: Mueller-Hinton broth microdilution, 37°C, 16-24 hours, read-out: ABMF Minimal Inhibitory Concentration (µ/ml) S. pneum.
Text: (§1) Still another test protocol is the in vitro antibacterial (ABMF) test which is a recognized standard microdilution susceptibility procedure in Mueller-Hinton broth against Gram-positive and Gram-negative bacterial test organisms. The procedure is a modification of a state-of-the-art procedure reported in Manual of Clinical Microbiology, Lennette, E. H., ed., by Barry, A. L. and C. Thornsberry at pages 463-474 and by Gavan, T. L. and A. L. Barry at pages 459―462, American Society for Microbiology, Washington, 1980.
(§2) In the test, a given bacterial culture is used to inoculate individual test wells of microdilution trays containing growth medium and test compound, the latter in a microdilution series: 1000, 333.111, 37,12, 4, 1.4, and 0.46 micrograms per milliliter. […] For convenience, values are reported for Escherichia coli, Corynebacterium Sp. ATCC 21698, Salmonella typhimurium, Streptococcus pneumoniae, and Rhodotorula aurantiaca.

[3] = system: Salmonella typhimurium; assay: as above; assay type: cell-based; details: Salmonella enterica, Mueller-Hinton broth microdilution, 37°C, 16-24 hours, read-out: ABMF Minimal Inhibitory Concentration (µ/ml) S. typh.
Text: as §1, §2

[4] = system: Rhodotorula aurantiaca; assay: as above; assay type: cell-based; details: Buckleyzyma aurantiaca, read-out: ABMF Minimal Inhibitory Concentration (µ/ml) R. aurant
Text: as §1, §2

[5] = system: Escherichia coli; assay: as above; assay type: cell-based; details: read-out: ABMF Minimal Inhibitory Concentration (µ/ml) E. coli
Text: as §1, §2

[6] = system: Corynebacterium Sp. ATCC 21698; assay: as above; assay type: cell-based; details: ATCC21698, Mueller-Hinton broth microdilution, 37°C, 16-24 hours, read-out: ABMF Minimal Inhibitory Concentration (µ/ml) Coryn. sp.
Text: as §1, §2

[7] = system: lymphocytic leukemia P388; assay: in vivo lymphocytic leukemia P388 test; details: Mus musculus, P388, ip, 120 h, mice, survival time treated/control, read-out: P388 in vivo T/C×100; for response vs control in vivo at 25 mg/kg: Dose 25 mg/kg intraperitoneally once daily for five days; for response vs control in vivo at 50 mg/kg: Dose 50 mg/kg intraperitoneally once daily for five days; for response vs control in vivo at 100 mg/kg: Dose 100 mg/kg intraperitoneally once daily for five days; for response vs control in vivo at 12.5 mg/kg: Dose 12.5 mg/kg intraperitoneally once daily for five days; for response vs control in vivo at 6.25 mg/kg: Dose 6.25 mg/kg intraperitoneally once daily for five days
Method: Another test protocol is the in vivo lymphocytic leukemia P388 test. The animals used are either male or female CD2F, mice. There are six or seven animals per test group. The tumor transplant is by intraperitoneal injection of dilute ascitic fluid containing cells of lymphocytic leukemia P388. The test compounds are administered intraperitoneally once daily for five consecutive days at various doses following tumor inoculation. The animals are weighed and survivors are recorded on a regular basis for 30 days. A compound is designated "toxic" if, at a given dose, all animals died prior to four days after the first injection of drug. A ratio of survival time for treated (T)/control (C) animals is calculated. A criterion for efficacy is a ratio T/C times 100 greater than or equal to 125. See Cancer Chemotherapy Reports, Part 3, 3, 1 (1972) for a comprehensive discussion of the protocol.

[8] = Mueller-Hinton broth microdilution, 37°C, 16-24 hours

SMILES	IC50 [1] [nM]	MIC [2] [µg/mL]	MIC [3] [µg/mL]	MIC [4] [µg/mL]	MIC [5, 8] [µg/mL]	MIC [6] [µg/mL]	response vs control in vivo at 25 mg/kg [7] [%]	response vs control in vivo at 50 mg/kg [7] [%]	response vs control in vivo at 100 mg/kg [7] [%]	MIC [4, 8] [µg/mL]	MIC [5] [µg/mL]	response vs control in vivo at 12.5 mg/kg [7] [%]	response vs control in vivo at 200 mg/kg ([7]; Dose 200 mg/kg intraperitoneally once daily for five days) [%]	response vs control in vivo at 6.25 mg/kg [7] [%]
CCN(CC)CCn1nc2c3c(c([N+](=O)[O-])ccc31)Oc1ccc(OC)cc1-2 [Example 5, N,N-Diethyl-9-methoxy-5-nitro-2H-[1]benzopyrano-[4,3,2-cd]indazole-2-ethanamine, methanesulfonate (1: 1)]	920	< 0.46	111	111	< 0.46	< 0.46	126	148	192					
CCN(CC)CCn1nc2c3c(c(NCCN)ccc31)Oc1ccc(OC)cc1-2 [Example 6, 1-[2-[2-(Diethylamino)ethyl]-9-methoxy-2H-[1]benzopyrano-[4,3,2-cd]ndazole-5-yl]-1,2-ethanediamine, trihydrobromide]	1100	12.3	111			4.1	145			333	111	154		
COc1ccc2c(c1)-c1nn(CCCN(C)C)c3ccc([N+](=O)[O-])c(c13)O2 [Example 7, 9-Methoxy-N,N-dimethyl-5-nitro-2H-[1]benzopyrano[4,3,2-cd]indazole-2-propanamine, methanesulfonate (1:1.17)]	580	< 0.46	111		4.1	< 0.46		134	159	1000			218	
COc1ccc2c(c1)-c1nn(CCN3CCCC3)c3ccc([N+](=O)[O-])c(c13)O2.Cl [Example 8, 9-Methoxy-5-nitro-2-[2-(1-pyrrolidinyl)ethyl]-2H-[1]benzopyrano[4,3,2-cd]indazole, monohydrochloride]	2000	< 0.46	37		> 1000	< 0.46				111				
COc1ccc2c(c1)-c1nn(CCN3CCCC3)c3ccc(N)c(c13)O2 [Example 9, 9-Methoxy-2-[2-(1-pyrrolidinyl)ethyl]-2H-[1]benzopyrano[4,3,2-cd]indazole-2-amine, monohydrochloride]	360	4.1	111		12.3	4.1				333				
O=[N+]([O-])c1ccc2c3c(nn2CCN2CCCC2)-c2cc(O)ccc2Oc13 [Example 10, 5-Nitro-2[2-(1-pyrrolidinyl)ethyl]-2H-[1]benzopyrano[4,3,2-cd]indazole-9-ol, methanesulfonate]	3.5	< 0.46	1.4		> 1000	< 0.46				1000				
CN(C)CCCn1nc2c3c(c([N+](=O)[O-])ccc31)Oc1ccc(O)cc1-2.CS(=O)(=O)O [Example 11, 9-Hydroxy-N,N-dimethyl-5-nitro-2H-[1]benzopyrano[4,3,2-cd]indazole-2-propanamine, methanesulfonate (1:1)]	15	< 0.46	12.3		< 0.46	< 0.46	226			1000		200		150
CCN(CC)CCn1nc2c3c(c(N)ccc31)Oc1ccc(O)cc1-2.Cl.Cl [Example 12, 5-Amino-N,N-diethyl-9-hydroxy-2H-[1]benzopyrano[4,3,2-cd]indazole-2-ethanamine, dihydrochloride]	71	12.3	111			12.3	192			> 1000	111	201		167
CCN(CC)CCn1nc2c3c(c(NC(=O)CNCCO)ccc31)Oc1ccc(O)cc1-2.Cl [Example 13, N-[2-[2-(Diethylamino)ethyl]-9-hydroxy-2H-[1]benzopyrano[4,3,2-cd]indazole-5-yl]-2-[(2-hydroxyethyl)-amino]acetamide, hydrochloride]	5.7	333	> 1000		111	333	198	227	272	> 1000				
CCN(CC)CCn1nc2c3c(c(NCCNCCO)ccc31)Oc1ccc(O)cc1-2 [Example 14]	48	11 (≈ 25.8 µM)	> 33		11 (≈ 25.8 µM)	33 (≈ 77.5 µM)				> 33		272		236
O=[N+]([O-])c1ccc2c3c(nn2CCNCCO)-c2cc(O)ccc2Oc13 [Example 15, 2-[2-[(2-Hydroxyethyl)amino]ethyl]-5-nitro-2H-[1]benzopyrano[4,3,2-cd]indazol-9-01, hydrochloride]	15	1.4	12.3		> 0.46	1.4	218	230		1000		190		
Cl.Nc1ccc2c3c(nn2CCNCCO)-c2cc(O)ccc2Oc13 [Example 16, 5-Amino-2-[2-[(2-hydroxyethyl)amino]ethyl]-2H-[1]benzopyrano[4,3,2-cd]indazol-9-ol, hydrochloride]	120	37	37		4.1	12.3	260			> 1000		200		165
CCN(CC)CCn1nc2c3c(c([N+](=O)[O-])ccc31)Oc1cc(OC)ccc1-2 [Example 19, 5-Nitro-2-[2-(diethylamino)ethyl]-8-methoxy-2H [1]benzopyrano[4,3,2-cd]indazol, hydrochloride]	2200	< 0.46	37		< 0.46	< 0.46				333				
CCN(CC)CCn1nc2c3c(c([N+](=O)[O-])ccc31)Oc1cc(O)ccc1-2 [Example 20, 5-Nitro-2-[2-(diethylamino)ethyl]-2H-[1]benzopyrano[4,3,2-cd]indazol-8-0l, hydrochloride]	870	< 0.46	12.3		1.4	< 0.46				> 1000				
